Measurements published in US20230265099A1, “SIK INHIBITORS AND METHODS OF USE THEREOF” (SOLTEGO, INC., priority 2020, published 2023).
Entries after “also recorded” stand apart in the source; their conditions may differ.

Assays:
[1] = test system: reconstituted melanized human epidermis (NHEKs and NHEMs-MP melanocytes); assay: Melanin content from Fontana-Masson stained sections of reconstituted melanized human epidermis; type: cell-based; details: for melanin content (Fontana-Masson stained sections): % relative to DMSO 0.005%
Experimental: Based on the results of dose determination studies, 0.3 μg/ml, 0.01 μg/ml and 0.0033 μg/ml doses of SLT-008 were selected for further application in a culture medium of reconstituted melanized human epidermis. The pigmentation effect studies were carried out on epidermis reconstituted with NHEKs (Normal human epidermal keratinocytes, Lonza 00192906) isolated from foreskin of 3 neonatal Caucasian donors and NHEMs-MP melanocytes.
The tissues were cultured at the air-liquid interface in Epilife medium (Fisher Scientific, MEPI500CA) containing specific supplements (with among others Human Keratinocytes Growth Factors, Fisher Scientific S0015 or S001K) and antibiotics (Gentamycin, Fisher Scientific, 15710049). They were maintained in a humid atmosphere at 37° C. with 5% CO2.
Melanocytes were co-cultured with reconstructed epidermis and cultivated at the air-liquid interface during 14 days in culture medium in a humid atmosphere at 37° C. with CO2 5%. SLT-008 was applied in the culture medium at 3 concentrations, during 10 days, from day 4 to day 14 after placement at the air/liquid interface (n=6), with 5 medium refreshes (at day 7, 8, 9, 10 and 11). In order to allow pigmentation of the epidermis, the concentration in BPE (bovine pituitary extract) in culture medium was adapted during the treatments. DMSO at 0.005%, used for the compounds solubilization was used as reference control condition. IBMX at 150 μM and forskolin at 3.33 μM were used as pro-pigmentation reference compounds to validate the experiment. An additional DMSO control at 0.05% corresponding to the solvent of the reference compounds was added as well in the experiment.
At the end of treatments (day 14), a morphology analysis was performed. The epidermis pigmentation was quantified after solvable extraction and quantified through Fontana Masson staining of histologic sections. 6 μm sections of epidermis embedded in paraffin were prepared and stained with Fontana Masson reagents. Fontana Masson staining specifically stains melanin within the epidermis. In order to visualize the epidermis in addition to the melanin, a counterstaining with hemalum/eosin was performed as well. Tissue section staining was performed in three series with one set for each test compound. Slides with sections of epidermis treated with DMSO at 0.005% were put in each set for Fontana Masson staining in order to compare the effects of the SLT-008.
Melanin deposition on 6 μm paraffin sections of each epidermis was stained by Fontana-Masson reagents (VWR-VWRK641295, VWRK641311; Klinipath-641215). […]
For the melanin quantification, 3 pictures of each epidermis were taken and analyzed by using the Leica QWin3 software. […]
Melanin content was determined from Fontana-Masson stained sections (% relative to DMSO 0.005%). […]

[2] = test system: Primary human epidermal keratinocytes (hEK) cocultured with human epidermal melanocytes; assay: Topical application on keratinocyte/melanocyte coculture skin model, Fontana Masson staining; type: cell-based; details: single topical application
Experimental: Primary human epidermal keratinocytes (hEK) were seeded onto suitable carrier matrices and cocultured with human epidermal melanocytes. SLT-8 was solubilized in PEG/Ethanol/Transcutol® at 0.3 mM, 1 mM and 3 mM and applied topically using a mesh to the surface of the models and removed after 4 hours. Test compounds were applied once daily over a period of 4 days. Untreated models and models treated with the vehicle only served as controls. UV irradiated models were used as positive controls. Fontana Masson staining was conducted to visualize pigmentation effects. Fontana-Masson staining is routinely used to visualize argentaffin substances such as melanin, argentaffin granules and some neurosecretory granules. Melanin is a nonlipid, non-hematogenous pigment. It is a brown-black pigment present normally in the hair, skin, retina, iris, and certain parts of the central nervous system. Argentaffin granules are found in carcinoid tumors. The argentaffin cell granules or melanin stain black. Nuclei stain pink-red. The cytoplasm stains pale pink.

SIK3(h) = SIK3(h) (Homo sapiens, UniProt Q9Y2K2); assay: Salt Induced Kinase inhibition, radiometric [γ-33P]-ATP filter assay, SIK3; type: biochemical
[3] = test system: melanized reconstructed human epidermis; assay: LDH release assay on melanized reconstructed human epidermis; type: cell-based
Experimental: Quantification of lactate dehydrogenase (LDH) release from melanized tissue was performed at mid-treatment and at the end of treatment with the SLT-008 to ensure that the selected doses were not cytotoxic for the melanized reconstructed human epidermis. The release of LDH by the culture model was assessed after 5 and 10 days of treatments with the Cytotoxicity Detection KitPLUS (Roche-04744926001) according to the manufacturer's instructions. Briefly, culture supernatants were collected and mixed with LDH detection reactants in 96-well plates for 30 min before measuring optical density at 490 nm with a reference wavelength of 600 nm using a spectrophotometer (GloMax-Promega). This was performed in triplicates of cultures (n=3). […] The effect of these concentrations was thus studied on the tissue pigmentation (FIG. 5).

[4] = test system: apoptotic cells in the epidermis of human skin explants; assay: Stripping-induced apoptosis DNA protection study, TUNEL assay on skin explants; type: cell-based; details: 0.9% in absolute ethanol, after tape stripping, Day 11, significant
Text: The aim of this study was to perform complementary immunostaining of TUNEL (apoptotic cell marker).
Histological processing: 5-μm-thick sections were made using a Leica RM 2125 Minot-type microtome, and the sections were mounted on Superfrost® histological glass slides. The microscopical observations were realized using a Leica DMLB, an Olympus BX43 or BX63 microscope. Pictures were digitized with a numeric DP72 or DP74 Olympus camera with CellSens storing software.
The staining was semi-quantified by image analysis.
Image analysis method: The images analyses was performed on all the images of the selected batch using CellSens software. Stained surfaces comparisons
The stained surface percentage (Surf %) for the treatment is compared to the untreated condition=>S vs T; SP vs S.

[5] = test system: reconstituted melanized epidermis; assay: Hematoxylin/eosin (H/E) morphology of reconstituted melanized epidermis; type: cell-based, human; details: 3 selected doses (0.3, 0.01, 0.0033 μg/ml) in culture medium
Experimental: Next, absence of toxicity of the three doses was evaluated in reconstituted melanized epidermis by hematoxylin/eosin (H/E) staining of histologic sections.
At the end of the treatments with the test compounds, 3 tissues per dose (n=3) were fixed in 4% formaldehyde, dehydrated and paraffin embedded. Sections of 6 μm of epidermis were stained with eosin and hematoxylin (H/E). Slides were mounted with specific medium and examined with a Leica DM2000 photomicroscope coupled to a digital camera (Zeiss).

[6] = test system: human living skin explants; assay: Pigmentation activity on human living skin explants with stripping; type: cell-based
Experimental: The pigmentation activity of SLT-008 at two concentrations was evaluated on skin using human living skin explants with stripping.
Human skin explants of an average diameter of 11 mm (±1 mm) were prepared on an abdominoplasty from a person with a III phototype. The explants were kept alive in BEM culture medium (BIO-EC's Explants Medium) at 37° C. in a humid, 5%-CO2 atmosphere. The study was performed on human skin tissue, obtained from surgical residues in accord with the Declaration of Helsinki and the article L.1243-4 of the French Public Health Code.
On day 0, the explants of the batches “S” were stripped 5 times using scotch 3M to remove some stratum corneum layers to facilitate the penetration of the tested products. The excipient and the tested products were applied topically on the basis of 2 μl per explant (2 mg/cm^2) and spread using a small spatula on day 0 (D0, after the stripping), D1, D4, D6 and D8.
The culture medium was half renewed (1 ml per well) on D0, D1, D4, D6 and D8. On D0, D1, D4, D5, D6, D7 and D8, the culture media of the irradiated explants (TUV) were replaced by HBSS (Hank's Balanced Saline Solution; 1 ml per explant). Then, the explants of the “TUV” batch were irradiated using a UV simulator Vibert Lourmat RMX 3W with a dose of 2.25 J/cm2 of UVA corresponding to 0.5 MED (minimal erythemal dose) for a phototype II donor. […]

reconstructed epidermis = assay: Melanin content by chemical (solvable) extraction of reconstructed epidermis; type: cell-based, human; details: applied at 1 and 0.1 μg/ml and more so at 0.3 μg/ml
Experimental: Using similar methods described previously in this Example, the experiments were repeated. At the end of these treatments, tissues (n=3) were removed from their inserts and immerged in a solvable extraction solution (Perkin Elmer-NJTSRN8010060) and heated at 80° C. for 1 h. The optical density of the supernatants was measured at 490 nm with a spectrophotometer (GloMax-Promega) and the melanin content was determined by comparison with a standard curve of synthetic melanin (Sigma-M8631)

Sequence of SIK3(h) (Q9Y2K2 whole entry): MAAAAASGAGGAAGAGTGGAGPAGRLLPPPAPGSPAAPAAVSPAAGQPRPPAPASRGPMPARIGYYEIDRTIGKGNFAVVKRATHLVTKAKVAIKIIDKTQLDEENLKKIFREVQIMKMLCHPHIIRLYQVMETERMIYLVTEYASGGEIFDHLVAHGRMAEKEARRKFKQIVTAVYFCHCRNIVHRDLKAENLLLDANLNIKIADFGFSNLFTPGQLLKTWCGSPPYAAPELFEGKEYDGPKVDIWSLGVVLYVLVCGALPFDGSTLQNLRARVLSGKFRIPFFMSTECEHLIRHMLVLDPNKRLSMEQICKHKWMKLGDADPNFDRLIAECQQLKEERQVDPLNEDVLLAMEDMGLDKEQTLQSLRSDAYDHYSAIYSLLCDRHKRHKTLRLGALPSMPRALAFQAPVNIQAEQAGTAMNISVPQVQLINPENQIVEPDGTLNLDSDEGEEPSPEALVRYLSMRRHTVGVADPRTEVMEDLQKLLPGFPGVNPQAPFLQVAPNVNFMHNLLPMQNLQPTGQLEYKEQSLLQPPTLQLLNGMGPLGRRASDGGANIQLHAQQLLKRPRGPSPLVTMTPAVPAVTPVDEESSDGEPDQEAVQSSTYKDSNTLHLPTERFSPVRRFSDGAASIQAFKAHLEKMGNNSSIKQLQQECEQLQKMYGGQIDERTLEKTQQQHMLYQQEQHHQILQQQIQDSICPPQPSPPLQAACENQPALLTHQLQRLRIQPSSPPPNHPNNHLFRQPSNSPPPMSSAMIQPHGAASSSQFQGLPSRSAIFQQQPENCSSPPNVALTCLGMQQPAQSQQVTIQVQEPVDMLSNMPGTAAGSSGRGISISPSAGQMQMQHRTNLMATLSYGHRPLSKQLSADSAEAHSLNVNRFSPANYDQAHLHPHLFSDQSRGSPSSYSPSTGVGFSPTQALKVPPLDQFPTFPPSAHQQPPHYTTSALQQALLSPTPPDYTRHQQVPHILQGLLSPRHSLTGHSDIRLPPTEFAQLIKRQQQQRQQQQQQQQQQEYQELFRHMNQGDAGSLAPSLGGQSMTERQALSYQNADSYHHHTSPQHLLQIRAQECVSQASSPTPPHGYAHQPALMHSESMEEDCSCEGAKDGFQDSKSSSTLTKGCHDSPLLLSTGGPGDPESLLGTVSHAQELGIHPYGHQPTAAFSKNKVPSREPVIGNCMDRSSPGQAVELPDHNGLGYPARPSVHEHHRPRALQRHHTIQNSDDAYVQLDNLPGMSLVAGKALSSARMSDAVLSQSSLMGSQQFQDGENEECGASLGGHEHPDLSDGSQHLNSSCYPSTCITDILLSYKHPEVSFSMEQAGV

Structure (SMILES) | pigmentation (Fontana-Masson) ([1]; positive controls: forskolin 3.33 μM, IBMX 150 μM, vs DMSO 0.05%) | melanin pigmentation (Fontana Masson staining) ([2]; 1 mM in PEG/Ethanol/Transcutol) | melanin pigmentation (Fontana Masson staining) ([2]; 3 mM in PEG/Ethanol/Transcutol) | melanin transfer to keratinocytes and nuclear capping ([2]; 3 mM) | IC50 (SIK3(h); Estimated IC50 Values, SIK3(h), ATP 45 μM) [nM] | IC50 (SIK3(h); SIK3) [nM] | melanin content (Fontana-Masson stained sections) ([1]; 0.011 μg/ml) | pigmentation / melanin content (Fontana-Masson) ([1]; 0.3 μg/ml vs DMSO 0.005%) | melanin content (Fontana-Masson stained sections) ([1]; 0.3 μg/ml) | LDH release from tissues ([3]; 0.3 μg/ml, after 10 days of treatment, without reaching the set cytotoxic level) | tissue integrity (LDH release) ([3]; application for 10 days) | decrease of apoptotic cell numbers (TUNEL stained surface) [4] [%] | morphologic alteration (H/E staining) [5] | cell viability ([6]; 0.5% and 0.9% topical, compared to the stripped batch) | melanin increase ([6]; 0.9% dose, topical, stripped explants, significant (p<0.1)) [%] | melanin content by chemical extraction (reconstructed epidermis)
CC(C)Cn1c(=O)n(C)c(=O)c2[nH]cnc21 [IBMX, reference compound] | increased | – | – | – | – | – | – | – | – | – | – | – | – | – | – | –
Cc1cccc(C)c1N1Cc2cnc(Nc3ccc(N4CCN(C)CC4)cc3)nc2N(C23CC4CC(CC(C4)C2)C3)C1=O [SLT-008, 1-((3s,5s,7s)-adamantan-1-yl)-3-(2,6-dimethylphenyl)-7-((4-(4-methylpiperazin-1-yl)phenyl)amino)-3,4-dihydropyrimido[4,5-d]pyrimidin-2(1H)-one] | – | induced melanin pigment dots at the stratum lucidum level | induced melanin pigment dots at the stratum lucidum level | induced melanin transfer to keratinocytes and nuclear capping was observed | > 20 | > 20 | 125.6+/−15.4% | significantly increased; also recorded: significant increase | 129+/−5.7% | Slight and significant increase | did not induce relevant alteration of the tissue integrity | 97 | no morphologic alteration | no modification of cell viability | 36 | increased, with a dose effect
